Test results published in US8410153B2, “Naphthalene isoxazoline invertebrate pest control agents” (E.I. du Pont de Nemours and Company, priority 2007, dated 2013).

Tests used:
Format in all cases: in vivo
[1] = system: diamondback moth (Plutella xylostella); test: Test A: control of diamondback moth on radish plant, foliar spray; conditions: sprayed at 50 ppm, held 6 days
Summary of the method: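 Radish plants 12–14 days old, pre-infested with about 50 neonate larvae, sprayed at 50 ppm in 10% acetone/water with 300 ppm X-77 surfactant; three replicates. After 6 days at 25° C and 70% RH, feeding damage was scored visually and mortality counted.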

[2] = system: fall armyworm (Spodoptera frugiperda); test: Test B: control of fall armyworm on corn (maize) plant, foliar spray; conditions: sprayed at 50 ppm
Summary of the method: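 4-5-day-old corn plants pre-infested with 10-15 1-day-old larvae on insect diet, then sprayed with compound at 50 ppm in 10% acetone/90% water with 300 ppm surfactant, three replicates. Held 6 days at 25° C, 70% RH; feeding damage assessed visually and mortality rated.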

[3] = system: western flower thrips (Frankliniella occidentalis); test: Test E: control of western flower thrips on Soleil bean plant, contact and/or systemic; conditions: held 6 days
Summary of the method: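 5–7-day-old Soleil bean plants were sprayed at 250 or 50 ppm in 10% acetone/90% water with 300 ppm X-77 surfactant, three replicates. After drying 1 h, 22–27 adult thrips were added per unit. Mortality and plant damage were rated after 6 days at 25 °C and 45–55% RH.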

Measured: levels of control efficacy (20% or less feeding damage or 80% or more mortality)

C[S+]([O-])CCNC(=O)c1ccc(C2=NOC(c3cc(Cl)cc(Cl)c3)(C(F)(F)F)C2)c2ccccc12 (centres unmarked) [Compound 18]
very good to excellent: [1] | [2] | [3]; sprayed at 50 ppm | [3]; sprayed at 250 ppm

CSCC(C)NC(=O)c1ccc(C2=NOC(c3cc(Cl)cc(Cl)c3)(C(F)(F)F)C2)c2ccccc12 (mixture of isomers) [Compound 29]
very good to excellent: [1] | [2] | [3]; sprayed at 50 ppm | [3]; sprayed at 250 ppm

CS(=O)(=O)CCNC(=O)c1ccc(C2=NOC(c3cc(Cl)cc(C(F)(F)F)c3)(C(F)(F)F)C2)c2ccccc12 (centres unmarked) [Compound 66]
very good to excellent: [1] | [2] | [3]; sprayed at 50 ppm | [3]; sprayed at 250 ppm

CC(NC(=O)c1ccc(C2=NOC(c3cc(Cl)cc(Cl)c3)(C(F)(F)F)C2)c2ccccc12)C(=O)NCC(F)(F)F (mixture of isomers) [Compound 16]
very good to excellent: [1] | [2] | [3]; sprayed at 50 ppm | [3]; sprayed at 250 ppm

O=C(CNC(=O)c1ccc(C2=NOC(c3cc(Cl)cc(Cl)c3)(C(F)(F)F)C2)c2ccccc12)NCCF (centres unmarked) [Compound 12]
very good to excellent: [1] | [2] | [3]; sprayed at 50 ppm | [3]; sprayed at 250 ppm

O=C(CNC(=O)c1ccc(C2=NOC(c3cc(Br)cc(Br)c3)(C(F)(F)F)C2)c2ccccc12)NCC(F)(F)F (centres unmarked) [Compound 23]
very good to excellent: [1] | [2] | [3]; sprayed at 50 ppm | [3]; sprayed at 250 ppm

CC(C)CNC(=O)CNC(=O)c1ccc(C2=NOC(c3cc(Cl)cc(C(F)(F)F)c3)(C(F)(F)F)C2)c2ccccc12 (centres unmarked) [Compound 118]
very good to excellent: [1] | [2] | [3]; sprayed at 250 ppm

CC(C)CNC(=O)C(C)NC(=O)c1ccc(C2=NOC(c3cc(C(F)(F)F)cc(C(F)(F)F)c3)(C(F)(F)F)C2)c2ccccc12 (mixture of isomers) [Compound 93]
very good to excellent: [1] | [2] | [3]; sprayed at 50 ppm

CSCCNC(=O)c1ccc(C2=NOC(c3cc(Cl)cc(Cl)c3)(C(F)(F)F)C2)c2ccccc12 (centres unmarked) [Compound 17]
very good to excellent: [1] | [2] | [3]; sprayed at 50 ppm | [3]; sprayed at 250 ppm

CSCCNC(=O)c1ccc(C2=NOC(c3cc(F)cc(C(F)(F)F)c3)(C(F)(F)F)C2)c2ccccc12 (racemic) [Compound 132]
very good to excellent: [1] | [2] | [3]; sprayed at 50 ppm | [3]; sprayed at 250 ppm
